This is an account of results in article PMC6792352, “Limited Chemical Structural Diversity Found to Modulate Thyroid Hormone Receptor in the Tox21 Chemical Library” (Environmental Health Perspectives, 2019).

Where two headings read alike, the source gives them in different places.

The subject of data set [1] is thyroid hormone receptor (endogenous TRα and TRβ). As to the kind of experiment: GH3-TRE-Ag primary qHTS, luciferase reporter, agonist mode (TOX21_TR_LUC_GH3_Agonist, aeid 803). Particulars: for GH3-TRE-Ag AC50 hitc: hit call from tcpl. In kind it is cell-based, rat.
Data set [2] has the same test system. In words: GH3-TRE-Ag-Followup confirmation (TOX21_TR_LUC_GH3_Agonist_Followup, aeid 2226). In kind it is cell-based, rat. The settings on record: for AC50: read-out: GH3-TRE-Ag-Followup AC50; for GH3-TRE-Ag-Followup hitc: hit call from tcpl.
The target in data set [3] is T1, human RXRα (Homo sapiens, UniProt P19793).
T1 construct: host or cells: GeneBLAzer UAS-bla HEK 293T
T1 sequence (P19793 227-458 limits assumed): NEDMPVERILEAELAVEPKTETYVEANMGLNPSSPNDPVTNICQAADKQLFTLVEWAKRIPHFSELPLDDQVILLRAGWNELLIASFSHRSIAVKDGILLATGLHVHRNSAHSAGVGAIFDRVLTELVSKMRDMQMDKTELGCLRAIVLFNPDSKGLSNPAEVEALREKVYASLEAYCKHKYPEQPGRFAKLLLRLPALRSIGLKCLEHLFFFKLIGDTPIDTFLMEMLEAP
As to the kind of experiment: RXRa-bla-Ag mammalian one-hybrid beta-lactamase assay (TOX21_TR_RXR_BLA_Agonist_Followup_ratio, aeid 2253). It is filed as cell-based. The settings on record: for tr-followup-rxr-bla-agonist-1 hitc: hit call from tcpl.

Data set [4] has as its target T2, TRα ligand-binding domain (Homo sapiens, UniProt P10827).
T2 construct: the receptor LBDs expressed as glutathione S-transferase (GST) fusion proteins; purchased
In words: TRa-coa LanthaScreen TR-FRET coactivator (SRC-2 peptide) recruitment, agonist (TOX21_TRA_COA_Agonist_Followup_ratio, aeid 2230). In kind it is biochemical. The settings on record: for TRa-coa hitc: hit call from tcpl. (Time-resolved FRET reads energy transfer from a long-lived donor to a nearby acceptor.)

In data set [5] the test system is Tox21 cell viability assays (different cell types). As to the kind of experiment: Global cytotoxicity: eighteen Tox21 cell viability assays. In kind it is cell-based.
Data set [6] has as its system thyroid hormone receptor (TR). In words: Classification of TR actives across characterization assays (TR-Ag / RXR-Ag; TR model binary). Details: key to Categorization Code: FP, false positive. The settings on record: for Categorization Code: TR agonist characterization; for Classification: TR-Ag = TR agonist, RXR-Ag = RXR agonist. In short, it runs like this:
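GH3-TRE qHTS agonist, antagonist and viability modes over 8,305 compounds; 84 candidates rescreened in GH3-TRE-Ag, TRβ- and RXRα-UAS-bla HEK 293T one-hybrid assays, HEK293T viability, and TRα/TRβ coactivator recruitment. Actives classified binary after removing pharmaceuticals.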

The subject of data set [7] is GH3-TRE-Luc cell line.
The nature of data set [8]: in vitro. The settings on record: rat, gh3-tre-luc cells, viability, 1 nM T3 present, 24 h.
Data set [9] deals with T3, human TRβ ligand-binding domain (Homo sapiens, UniProt P10828).
T3 sequence (P10828 217-461 limits assumed): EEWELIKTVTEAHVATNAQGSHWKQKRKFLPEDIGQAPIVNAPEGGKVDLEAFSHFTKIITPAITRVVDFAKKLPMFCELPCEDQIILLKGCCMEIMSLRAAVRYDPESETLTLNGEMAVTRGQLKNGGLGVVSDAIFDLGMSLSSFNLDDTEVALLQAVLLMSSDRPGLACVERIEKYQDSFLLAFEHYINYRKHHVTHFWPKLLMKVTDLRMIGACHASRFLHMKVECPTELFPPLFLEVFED
In words: TRb-bla agonist mammalian one-hybrid beta-lactamase assay (TOX21_TRB_BLA_Agonist_Followup_ratio, aeid 2236). It is filed as cell-based. Details: host or cells: GeneBLAzer UAS-bla HEK 293T. The settings on record: agonist.

Data set [10] addresses T3, human TRβ ligand-binding domain. In words: TRb-coa LanthaScreen TR-FRET coactivator (SRC-2 peptide) recruitment, agonist (TOX21_TRB_COA_Agonist_Followup_ratio, aeid 2244). In kind it is biochemical. More on the design: host or cells: GeneBLAzer UAS-bla HEK 293T.
The subject of data set [11] is GH3-TRE-Luc cell line. As to the kind of experiment: GH3-TRE-Via cell viability, CellTiter-Fluor (TOX21_TR_LUC_GH3_Antagonist_viability, aeid 805).

T2 sequence (P10827 163-410 isoform P10827-2 limits assumed, other chains not shown): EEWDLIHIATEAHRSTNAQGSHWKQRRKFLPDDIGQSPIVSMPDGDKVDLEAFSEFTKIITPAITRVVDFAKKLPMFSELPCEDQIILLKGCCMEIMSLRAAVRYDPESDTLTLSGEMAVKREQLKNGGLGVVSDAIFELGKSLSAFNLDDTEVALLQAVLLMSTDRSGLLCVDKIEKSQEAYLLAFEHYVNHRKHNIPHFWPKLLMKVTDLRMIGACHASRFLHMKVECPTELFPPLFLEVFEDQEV

On to `Cc1cc(NC(=O)C(=O)O)cc(C)c1Oc1ccc(O)c2c1CCC2` [CP-634384, reference compound], for which, in data set [1], the “EMax (% of Control) gh3-tre-agonist” value is 129.5 % of Control and the “GH3-TRE-Ag AC50 hitc” value amounted to 1. Besides, in [2], the “EMax (% of Control) gh3-tre-agonist-followup-1_agonist” value is 103.7 % of Control and the GH3-TRE-Ag-Followup hitc was determined as 1. Moreover, in data set [2] (confirmation, agonist mode), the concentration at half-maximal activity (AC50) (as a rule, the midpoint of the concentration-response curve, whichever way the signal moves) came out at 0.018 µM. Also, in data set [3], the “EMax (% of Control) tr-followup-rxr-bla-agonist-1” value is given as 54.9 % of Control and the tr-followup-rxr-bla-agonist-1 hitc was 1. Also, the concentration at half-maximal activity (AC50) in data set [3] (HEK 293T one-hybrid, agonist mode, inactive set to 1,000, read-out: RXRa-bla-Ag AC50) came out at 44.3 µM. Besides, in data set [4], the “EMax (% of Control) tra-coa-agonist-followup-1” value was 158.4 % of Control. In [4] (cell-free coactivator recruitment, read-out: TRa-coa-Ag AC50), the AC50 was found to be 0.0029 µM. In data set [4] (agonist), this compound had a TRa-coa hitc of 1. Also, in data set [5], the AC50 was greater than 92 µM, the “GLOBAL CYTOTOXICITY cytotox.median” value is recorded as greater than 92 and the “GLOBAL CYTOTOXICITY cytotox.number_Active” value is 0. In [6], the “Categorization Code” value is “TR-Ag” and the Classification entry is “TR-Ag”. Besides, in data set [7], the half-maximal activity concentration (AC50) was greater than 92 µM and the TR_LUC_GH3_Antagonist_viability hitc came out at 0.

`CCCCc1oc2ccccc2c1C(=O)c1cc(I)c(OCCN(CC)CC)c(I)c1` [amiodarone]: the “cytotoxicity in GH3 viability assay” value in [7] was “cytotoxic at the concentrations at which it inhibits TR”.

With `N[C@@H](Cc1cc(I)c(Oc2ccc(O)c(I)c2)c(I)c1)C(=O)[O-].[Na+]` [3,3ʹ,5-Triiodo-L-thyronine sodium salt, reference compound], the “TR_LUC_GH3_Agonist_EMAX (% Control)” value in data set [1] (Table S5) came to 108.5 % Control. Moreover, in [1], the “GH3-TRE-Ag AC50 hitc” value stood at 1. For the same compound, in [2], the “EMax (% of Control) gh3-tre-agonist-followup-1_agonist” value is recorded as 96.5 % of Control and the GH3-TRE-Ag-Followup hitc turned out to be 1. In data set [5], the AC50 was greater than 92 µM, the “GLOBAL CYTOTOXICITY cytotox.median” value was greater than 92 and the “GLOBAL CYTOTOXICITY cytotox.number_Active” value is listed as 0. Further, in [6], the “Categorization Code” value is “TR-Ag” and the Classification result is “TR-Ag”. Further, in [7], the AC50 was greater than 92 µM and the TR_LUC_GH3_Antagonist_viability hitc is listed as 0.

With `CC(C)(c1ccccc1)c1ccc(O)c(C(C)(C)c2ccccc2)c1` [2,4-Bis(1-methyl-1-phenylethyl)phenol], the “EMax (% of Control) gh3-tre-agonist” value in [1] was 22.3 % of Control. In data set [1], the “GH3-TRE-Ag AC50 hitc” value is recorded as 0. The “EMax (% of Control) gh3-tre-agonist-followup-1_agonist” value in data set [2] is listed as 33.5 % of Control. Moreover, in [2], the GH3-TRE-Ag-Followup hitc was 1. Moreover, the AC50 is 5.35 µM in data set [2]; greater than 92 µM in data set [3] (read-out: tr-followup-rxr-bla-agonist-1 AC50); greater than 92 µM in data set [4] (agonist, read-out: TRa-coa AC50); greater than 92 µM in data set [9] (read-out: TRb-bla AC50); greater than 92 µM in data set [10] (agonist, read-out: TRb-coa AC50); 11.2 µM in data set [11] (read-out: TR_LUC_GH3_Antagonist_viability AC50). In addition, the “EMax (% of Control) tr-followup-rxr-bla-agonist-1” value in data set [3] is listed as 12.1 % of Control. In data set [3], the tr-followup-rxr-bla-agonist-1 hitc was found to be 0. The “EMax (% of Control) tra-coa-agonist-followup-1” value in data set [4] is 9.2 % of Control. In data set [4] (agonist), this compound yielded a TRa-coa hitc of 0. Further, in data set [5] (# active of 18 total Tox21 viability assays), the “GLOBAL CYTOTOXICITY cytotox.number_Active” value is reported as 17. Besides, the “GLOBAL CYTOTOXICITY cytotox.median” value in data set [5] (median over Tox21 viability assays) is listed as 24.3. Moreover, in data set [6], the “Categorization Code” value is on record as “FP”. Moreover, the half-maximal cytotoxic concentration (CC50) (commonly the concentration at which the toxic effect on the cells reaches its halfway point) at 24 h worked out at 13.3 µM in data set [8] (AC50 (uM) modified / 1000, Tox21_110001=Tox21_202456) and 11.2 µM in [8] (AC50 (uM) modified / 1000, Tox21_110001=Tox21_300317). The compound further returned a TRb-bla hitc in [9] (hit call from tcpl) of 0. The “EMax (% of Control) trb-coa-agonist-followup-1” value in data set [10] is 13.4 % of Control. In [10] (hit call from tcpl, agonist), this compound came in with a TRb-coa hitc of 0. In data set [11] (hit call from tcpl), this compound showed a TR_LUC_GH3_Antagonist_viability hitc of 1.
